Results taken from article PMC6609550, “Blockade of the forward Na^+/Ca^2+ exchanger suppresses the growth of glioblastoma cells through Ca^2+‐mediated cell death” (British Journal of Pharmacology, 2019).

What was measured:
Type in all cases: cell-based, Human
[1] = test system: U87 cells; assay: Annexin V–FITC/PI apoptosis assay of U87 cells
Procedure: U87 cells were seeded in six‐well plates (Corning, Corning, NY, USA) with 1 × 10^6 cells per well and treated with NCX blockers, BAPTA‐AM, or MAPK inhibitors. Drug treatment was performed by the person who is blinded to the experimental groups. After treatment, cells were harvested in 15‐ml tubes and washed with cold sterile PBS. After being centrifuged, cells were fixed with 70% ethanol […] at 4°C for at least 1 hr. For propidium iodide (PI) staining, cells were washed one time with PBS and then were treated with ribonuclease A (RNase; 100 μg·ml^−1) for 30 min. PI (10 μg·ml^−1) was added, and stained cells were kept in the dark at 4°C until analysis. The number of cells analysed for each sample was 10,000 events. FACS analysis was performed using the Coulter CytoFlexS flow cytometer (Beckman Coulter, CA, USA), and the percentage of cells in the G0/G1, S, and G2/M phases was determined using cell cycle analysis software, ModFit LT 5.0 (Verity Software House, Topsham, ME, USA). For the apoptosis assay, cells were harvested and washed twice with cold PBS and resuspended at a density of 1 × 10^6 cells·ml^−1 in 100 μl of binding buffer containing 5 μl of Annexin V–FITC and 5 μl of PI working solution (100 μg·ml^−1). After incubation at room temperature for 15 min in the dark, 400 μl of binding buffer was added to each sample. Apoptosis was analysed by Coulter CytoFlexS flow cytometer (Beckman Coulter) for at least 10,000 events, and data were analysed with the software, CyExpert 2.0 (Beckman Coulter).

[2] = test system: reverse NCX; assay: Whole-cell patch-clamp recording of reverse-mode NCX currents in U87 cells; settings: reverse NCX current measured at +50 mV, mean ± SEM, n = 4, read-out: IC50, blocking reverse NCX (currents)
Procedure: (§1) Whole‐cell patch‐clamp recording was performed using a Multiclamp 700B amplifier (Molecular Devices, Foster City, CA, USA) at room temperature. Voltage protocols were provided and current recorded via a DigiData‐1550B interface (Molecular Devices) controlled by pClamp 10 Software (Molecular Devices, RRID:SCR_011323). […] Internal solution consisted of (in mM): 120 CsCl, 20 NaCl, 2 MgCl2, 13 CaCl2, 2 Na2ATP, 20 BAPTA, and 10 HEPES at a pH 7.2. […] Series resistance was compensated by 75–85%. Linear leak and residual capacitance currents were subtracted online using a P/4 protocol of the pClamp 10. For the recording of the membrane currents related to the NCX, cells were held at −50 mV and depolarized to +60 mV, and then a voltage ramp starting from +60 to −120 mV was applied for 1,000 ms before returning back to −50 mV. The reverse and forward NCX currents were measured at +50 and −110 mV holding potentials respectively (Molinaro et al., 2008; Rahman, Inman, Kiss, & Janssen, 2012; Song, Chen, & Yu, 2014). Data were filtered at 3 KHz and digitized at sampling rates of 20 KHz. For drug application, cells were perfused with a VC‐6 Six Channel Perfusion Valve Control Systems (Warner Instruments, Greenwich, CT, USA) connected to a gravity‐fed perfusion systems.
(§2) Data are expressed as mean ± SEM and analysed by Prism 7 software, La Jolla, CA (GraphPad Prism, RRID:SCR_002798). The data and statistical analysis comply with the recommendations of the British Journal of Pharmacology on experimental design and analysis in pharmacology. Concentrations of the NCX blockers (IC50) exerting half‐maximal inhibition of NCX currents were obtained by fitting the concentration–response with the equation: I/I0*100%=Bottom+Top−Bottom/1+10^((^Log^IC50−C)*n) , where I 0 and I are current amplitudes measured in control and in the presence of NCX blockers, C is the logarithm of concentration, and n is the Hill coefficient. The statistical difference between two independent groups was analysed by Student's parametric unpaired t test. And the original data of more than two groups were assessed by the parametric one‐way ANOVA followed by a Tukey's post hoc test. The data for cell viability and Western blot were usually normalized to the control group, and were thus analysed by the non‐parametric Kruskal–Wallis test followed by a Dunn's post hoc test. Differences were considered to be significant when P < .05. Post hoc tests were conducted when the F value achieved the necessary level (P < .05) and there was no significant variance inhomogeneity.
(§3) We characterized the membrane currents associated with NCX activity in glioblastoma cells using whole‐cell patch‐clamp recording. […] The NCX current in its reverse mode (Ca^2+ entry) was measured at +50, and the forward‐mode current (Ca^2+ exit) was measured at −110 mV. The Ni^2+ (10 mM) was employed to inhibit and identify the NCX currents in its either reverse or forward mode as previously reported (Maack, Ganesan, Sidor, & O'Rourke, 2005).

[3] = Cell viability assay (Cell Counting Kit-8), ranges given for U87 and U251 together; settings: human, U87 and U251 cells, read-out: Cell viability, % of control level
Procedure: Cell viability was determined by using a Cell Counting Kit‐8 (Dojindo, Japan). Briefly, cells were harvested from flasks and plated in 96‐well cell culture plates at 5 × 10^3 per well and cultured overnight. Cells were treated with test reagents for 72 hr. Control cells were treated with cell culture medium and measured at the same time point as treatment groups. CCK‐8 solution (10 μl) was added to each well of the 96‐well plates, and the cultures were incubated for 30 min at 37°C. Absorbance at 450 nm was measured using an automatic microplate reader (Molecular Devices, San Jose, CA, USA).

[4] = test system: forward NCX; assay: Whole-cell patch-clamp recording of forward-mode NCX currents in U87 cells; settings: for IC50: forward NCX current measured at −110 mV, mean ± SEM, n = 4, read-out: IC50, blocking forward NCX (currents); for Inhibition of the forward NCX currents (in words): −110 mV, SEA0400 0.1–100 μM, SN‐6 and YM244769 0.1–30 μM
Procedure: as §1, §2, §3

Row | SMILES | Effect on apoptosis (Annexin V+ cells), compound alone ([1]; bepridil 25 μM 6–48 hr, CB‐DMB 3.5 μM 6–48 hr, KB‐R7943 25 μM 20 hr, BAPTA‐AM 10 μM 18 hr, CC‐930 10 μM, PD169316 10 μM) | Effect on bepridil-induced apoptosis ([1]; bepridil 25 μM 24 hr, pretreatment BAPTA‐AM 10 μM, CC‐930 10 μM or PD169316 10 μM) | IC50 [2] | viability at 72 h, 10 µM [3] | viability at 72 h, 20 µM [3] | viability at 72 h, 50 µM [3] | IC50 [4] | Inhibition of the forward NCX currents (in words) [4]
1 | O[C@H]1CC[C@H](Nc2ncc3nc(Nc4c(F)cc(F)cc4F)n([C@H]4CCOC4)c3n2)CC1 [CC‐930, tanzisertib] | did not activate apoptosis | attenuated | – | – | – | – | – | –
2 | CCOc1ccc(Oc2ccc(OCc3cc(F)ccc3F)cc2)c(N)c1 [SEA0400, 2‐[4‐[(2,5‐difluorophenyl)methoxy]phenoxy]‐5‐ethoxyaniline] | – | – | 3.6 ± 1.2 µM | 93 to 106% | 88 to 103% | 72 to 92% | > 30 µM | without inhibition of the forward NCX currents
3 | CCOC(=O)C1CSC(Cc2ccc(OCc3ccc([N+](=O)[O-])cc3)cc2)N1 (centres unmarked) [SN‐6, 2‐[[4‐[(4‐nitrophenyl)methoxy]phenyl]methyl]‐4‐thiazolidinecarboxylic acid ethyl ester] | – | – | 3.2 ± 1.2 µM | 87 to 97% | 86 to 99% | 74 to 104% | > 30 µM | without inhibition of the forward NCX currents
4 | Cl.Cl.Nc1cccc(CNC(=O)c2ccc(Oc3ccc(OCc4cccc(F)c4)cc3)nc2)c1 [YM244769, N‐[(3‐aminophenyl)methyl]‐6‐[4‐[(3‐fluorophenyl)methoxy]phenoxy]‐3‐pyridinecarboxamide dihydrochloride] | – | – | 4.5 ± 1.1 µM | 87 to 100% | 84 to 96% | 71 to 76% | > 30 µM | without inhibition of the forward NCX currents
